Data reported in article PMC9230136 (Pharmaceutics, 2022).

Tests used:
A549 = assay: Antiproliferative assay (resazurin, 72 h); type: cell-based, human; details: Homo sapiens
Experimental: (§1) Colon adenocarcinoma (HT-29) and T-cell leukemia (Jurkat) cells were grown in RPMI-1640 medium (Gibco, Milano, Italy). Promyelocytic leukemia cells (HL-60), non-small cell lung carcinoma (A549), cervix carcinoma (HeLa) and breast adenocarcinoma (MDA-MB-231) cells were grown in DMEM medium (Gibco, Milano, Italy). Both media were supplemented with 115 units/mL of penicillin G (Gibco, Milano, Italy), 115 μg/mL of streptomycin (Invitrogen, Milano, Italy) and 10% fetal bovine serum (Invitrogen, Milano, Italy). All the cell lines used were purchased from the American Type Culture Collection (ATCC, Manassas, VA, USA). Stock solutions (10 mM) of the compounds were obtained by dissolving them in DMSO.
(§2) The cells were seeded in 96-well plates at the appropriate density for each cell line. After 24 h, the cells were treated by performing serial 5-fold dilutions of the tested compounds starting from a concentration of 10 μM. All experimental conditions were tested in triplicate for statistical analysis. The plates were incubated for 72 h at 37 °C in a humidified 5% CO2 atmosphere. At the end of the incubation period, 10 μL of 100 μg/mL resazurin solution was added to each well; then, the plate was re-incubated for 3–4 h. The fluorescence of the wells in each plate was monitored using a Spark 10 M spectrophotometer (Tecan Group Ltd., Mannedorf, Switzerland) with a 535 nm excitation wavelength and a 600 nm emission wavelength.

HT-29 = assay: Antiproliferative assay (resazurin, 72 h); type: cell-based, human; details: Homo sapiens, HT-29, mean ± SE, 72 h
Experimental: as §1, §2

HeLa = assay: Antiproliferative assay (resazurin, 72 h); type: cell-based, human; details: Homo sapiens, HeLa
Experimental: as §1, §2

Jurkat = assay: Antiproliferative assay (resazurin, 72 h); type: cell-based, human; details: for IC50: Homo sapiens, Jurkat, mean ± SE, 72 h
Experimental: as §1, §2

MDA-MB-231 = assay: Antiproliferative assay (resazurin, 72 h); type: cell-based, human; details: Homo sapiens, MDA-MB-231, mean ± SE, 72 h
Experimental: as §1, §2

[1] = system: A549, MDA-MB-231, HeLa, HT-29 and Jurkat cancer cell lines; assay: Antiproliferative activity over the panel of cancer cell lines; type: cell-based, human; details: MDA-MB-231 and HT-29 cells
Experimental: as §1, §2

## Cc1cc(Nc2ccc(F)cc2)n2nc(NCc3ccc4c(c3)OCO4)nc2n1 [Compound 8g, N^2-(Benzo[d][1,3]dioxol-5-ylmethyl)-N^7-(4-fluorophenyl)-5-methyl-[1,2,4]triazolo [1,5-a]pyrimidine-2,7-diamine]
A549; A549, Table 2, mean ± SE
  IC50: 650 ± 280 nM
HT-29; Table 2
  IC50: 260 ± 100 nM
HeLa; Table 2, mean ± SE
  IC50: 160 ± 70 nM
Jurkat; Table 2
  IC50: 200 ± 50 nM
Jurkat; Jurkat cells
  fold increase in activity relative to 7ad: 3-4 fold
MDA-MB-231; Table 2
  IC50: 600 ± 210 nM
[1]
  fold reduction in potency (vs 7y): 2–3 fold
other
  melting point: 168 to 170 °C

## COc1cc(Nc2cc(C)nc3nc(Nc4ccc(C)cc4)nn23)cc(OC)c1OC [Compound 7g, 5-Methyl-N2-(p-tolyl)-N7-(3,4,5-trimethoxyphenyl)-[1,2,4]triazolo [1,5-a]pyrimidine-2,7-diamine]
A549; A549, Table 1, mean ± SE
  IC50: 1550 ± 190 nM
HT-29; Table 1
  IC50: 940 ± 110 nM
HeLa; Table 1, mean ± SE
  IC50: 500 ± 40 nM
Jurkat; Table 1
  IC50: 850 ± 20 nM
MDA-MB-231; Table 1
  IC50: 1510 ± 140 nM
other
  melting point: 234 °C

## COc1ccc(Nc2nc3nc(C)cc(Nc4cc(OC)c(OC)c(OC)c4)n3n2)cc1 [Compound 7h, N2-(4-Methoxyphenyl)-5-methyl-N7-(3,4,5-trimethoxyphenyl)-[1,2,4]triazolo [1,5-a]pyrimidine-2,7-diamine]
A549; A549, Table 1, mean ± SE
  IC50: 3760 ± 140 nM
HT-29; Table 1
  IC50: 920 ± 90 nM
HeLa; Table 1, mean ± SE
  IC50: 520 ± 30 nM
Jurkat; Table 1
  IC50: 1010 ± 130 nM
MDA-MB-231; Table 1
  IC50: 1170 ± 130 nM
other
  melting point: 215 °C

## Cc1cc(Nc2ccc(Cl)c(Cl)c2)n2nc(NCc3ccc4c(c3)OCO4)nc2n1 [Compound 8k, N^2-(Benzo[d][1,3]dioxol-5-ylmethyl)-N^7-(3,4-dichlorophenyl)-5-methyl-[1,2,4]triazolo [1,5-a]pyrimidine-2,7-diamine]
A549; A549, Table 2, mean ± SE
  IC50: 2360 ± 340 nM
HT-29; Table 2
  IC50: 1380 ± 60 nM
HeLa; Table 2, mean ± SE
  IC50: 720 ± 340 nM
Jurkat; Table 2
  IC50: 950 ± 120 nM
MDA-MB-231; Table 2
  IC50: 2040 ± 1030 nM
other
  melting point: 166 to 168 °C

## COc1cc(Nc2cc(C)nc3nc(NCc4ccccc4C)nn23)cc(OC)c1OC [Compound 7r, 5-Methyl-N^2-(2-methylbenzyl)-N^7-(3,4,5-trimethoxyphenyl)-[1,2,4]triazolo [1,5-a]pyrimidine-2,7-diamine]
A549; A549, Table 1, mean ± SE
  IC50: 1920 ± 90 nM
HT-29; Table 1
  IC50: > 10000 nM
HeLa; Table 1, mean ± SE
  IC50: > 10000 nM
Jurkat; Table 1
  IC50: 4440 ± 470 nM
MDA-MB-231; Table 1
  IC50: 2990 ± 180 nM
other
  melting point: 182 to 184 °C

## COc1cc(Nc2cc(C)nc3nc(NCc4ccc(C#N)cc4)nn23)cc(OC)c1OC [Compound 7x, 4-(((5-Methyl-7-((3,4,5-trimethoxyphenyl)amino)-[1,2,4]triazolo [1,5-a]pyrimidin-2-yl)amino)methyl)benzonitrile]
A549; A549, Table 1, mean ± SE
  IC50: > 10000 nM
HT-29; Table 1
  IC50: > 10000 nM
HeLa; Table 1, mean ± SE
  IC50: 9010 ± 210 nM
Jurkat; Table 1
  IC50: > 10000 nM
MDA-MB-231; Table 1
  IC50: 1550 ± 110 nM
other
  melting point: 178 to 180 °C

## COc1cc(Nc2cc(C)nc3nc(NCc4cccc(C)c4)nn23)cc(OC)c1OC [Compound 7q, 5-Methyl-N^2-(3-methylbenzyl)-N^7-(3,4,5-trimethoxyphenyl)-[1,2,4]triazolo [1,5-a]pyrimidine-2,7-diamine]
A549; A549, Table 1, mean ± SE
  IC50: 3880 ± 280 nM
HT-29; Table 1
  IC50: 3460 ± 370 nM
HeLa; Table 1, mean ± SE
  IC50: 1610 ± 130 nM
Jurkat; Table 1
  IC50: 7020 ± 620 nM
MDA-MB-231; Table 1
  IC50: 1680 ± 180 nM
other
  melting point: 162 to 164 °C

## COc1cc(Nc2cc(C)nc3nc(NCc4cccnc4)nn23)cc(OC)c1OC [Compound 7k, 5-Methyl-N^2-(pyridin-3-ylmethyl)-N^7-(3,4,5-trimethoxyphenyl)-[1,2,4]triazolo [1,5-a]pyrimidine-2,7-diamine]
A549; A549, Table 1, mean ± SE
  IC50: 5280 ± 650 nM
HT-29; Table 1
  IC50: 3570 ± 480 nM
HeLa; Table 1, mean ± SE
  IC50: 2980 ± 320 nM
Jurkat; Table 1
  IC50: 6850 ± 630 nM
MDA-MB-231; Table 1
  IC50: 560 ± 67 nM
other
  melting point: 178 to 180 °C

## COc1ccc(CNc2nc3nc(C)cc(Nc4cc(OC)c(OC)c(OC)c4)n3n2)cc1OC [Compound 7v, N^2-(3,4-Dimethoxybenzyl)-5-methyl-N^7-(3,4,5-trimethoxyphenyl)-[1,2,4]triazolo [1,5-a]pyrimidine-2,7-diamine]
A549; A549, Table 1, mean ± SE
  IC50: 1000 ± 90 nM
HT-29; Table 1
  IC50: > 10000 nM
HeLa; Table 1, mean ± SE
  IC50: 560 ± 70 nM
Jurkat; Table 1
  IC50: 1220 ± 90 nM
MDA-MB-231; Table 1
  IC50: 1220 ± 150 nM
other
  melting point: 194 to 196 °C

## Cc1cc(Nc2cccc(Cl)c2)n2nc(NCc3ccc4c(c3)OCO4)nc2n1 [Compound 8j, N^2-(Benzo[d][1,3]dioxol-5-ylmethyl)-N^7-(3-chlorophenyl)-5-methyl-[1,2,4]triazolo [1,5-a]pyrimidine-2,7-diamine]
A549; A549, Table 2, mean ± SE
  IC50: 2170 ± 10 nM
HT-29; Table 2
  IC50: 2660 ± 660 nM
HeLa; Table 2, mean ± SE
  IC50: 960 ± 460 nM
Jurkat; Table 2
  IC50: 1660 ± 480 nM
MDA-MB-231; Table 2
  IC50: 4820 ± 1910 nM
other
  melting point: 164 to 166 °C

## Cc1cc(Nc2cccc(C(F)(F)F)c2)n2nc(NCc3ccc4c(c3)OCO4)nc2n1 [Compound 8o, N^2-(Benzo[d][1,3]dioxol-5-ylmethyl)-N^7-(3-trifluoromethylphenyl)-5-methyl-[1,2,4]triazolo [1,5-a]pyrimidine-2,7-diamine]
A549; A549, Table 2, mean ± SE
  IC50: 6260 ± 2020 nM
HT-29; Table 2
  IC50: 7130 ± 870 nM
HeLa; Table 2, mean ± SE
  IC50: 7150 ± 600 nM
Jurkat; Table 2
  IC50: 7600 ± 60 nM
MDA-MB-231; Table 2
  IC50: 9820 ± 860 nM
other
  melting point: 180 to 182 °C

## COc1cc(Nc2cc(C)nc3nc(NCc4cccc(F)c4)nn23)cc(OC)c1OC [Compound 7m, N^2-(3-Fluorobenzyl)-5-methyl-N^7-(3,4,5-trimethoxyphenyl)-[1,2,4]triazolo [1,5-a]pyrimidine-2,7-diamine]
A549; A549, Table 1, mean ± SE
  IC50: 2180 ± 310 nM
HT-29; Table 1
  IC50: 1530 ± 160 nM
HeLa; Table 1, mean ± SE
  IC50: 930 ± 20 nM
Jurkat; Table 1
  IC50: 5550 ± 480 nM
MDA-MB-231; Table 1
  IC50: 77 ± 10 nM
other
  melting point: 176 to 178 °C

## Cc1cc(Nc2cccc(Br)c2)n2nc(NCc3ccc4c(c3)OCO4)nc2n1 [Compound 8m, N^2-(Benzo[d][1,3]dioxol-5-ylmethyl)-N^7-(3-bromophenyl)-5-methyl-[1,2,4]triazolo [1,5-a]pyrimidine-2,7-diamine]
A549; A549, Table 2, mean ± SE
  IC50: 2320 ± 230 nM
HT-29; Table 2
  IC50: 2240 ± 120 nM
HeLa; Table 2, mean ± SE
  IC50: 1280 ± 300 nM
Jurkat; Table 2
  IC50: 1180 ± 110 nM
MDA-MB-231; Table 2
  IC50: 3990 ± 60 nM
other
  melting point: 150 to 152 °C

## COc1cc(Nc2cc(C)nc3nc(NCCc4ccccc4)nn23)cc(OC)c1OC [Compound 7z, 5-Methyl-N^2-phenethyl-N^7-(3,4,5-trimethoxyphenyl)-[1,2,4]triazolo [1,5-a]pyrimidine-2,7-diamine]
A549; A549, Table 1, mean ± SE
  IC50: 2010 ± 160 nM
HT-29; Table 1
  IC50: 1890 ± 160 nM
HeLa; Table 1, mean ± SE
  IC50: 860 ± 100 nM
Jurkat; Table 1
  IC50: 1990 ± 240 nM
MDA-MB-231; Table 1
  IC50: 940 ± 90 nM
other
  melting point: 201 to 203 °C
